Values after ≈ are worked out from the molar mass of the structure shown. Like-named read-outs stand apart in the source and are kept apart here.
Experiments:
[1] = Solubility in water (JP1 / JP2 fluids); type: physicochemical; conditions: thermodynamic from solid
Experimental: A 10 mmol/L solution of the test compound was prepared in DMSO and dispensed 100 μL of 10 mmol/L DMSO stock solutions into labeled glass tubes in duplicate, one for Japanese Pharmacopeia First Fluid (JP1) and second for Japanese Pharmacopeia Second Fluid (JP2). After evaporation of DMSO from each tube, 500 μL of JP1 and JP2 fluid were added in each tube, respectively. These tubes were sonicated for 1 minute and placed on shaker for 30 minutes with an interval of 30 seconds at every 5 minute. Tubes were placed in dark at room temperature for 1 hour and solution was filtered through membrane filter. The filtrate was diluted 2-fold and 10-fold. The resulting test solutions was analyzed and quantified against the standards using UPLC (standard preparation—10 mmol/L solution in DMSO is serially diluted with 50% aqueous acetonitrile solution to prepare 2 solutions; 100 μmol/L standard solution and 5 μmol/L standard solutions).

[2] = system: P. acnes ATCC 6921; assay: Susceptibility of P. acnes, agar dilution MIC; type: cell-based; conditions: Cutibacterium acnes, ATCC6921, anaerobic
Experimental: (§1) The antibacterial activity of the compounds of the present invention against P. acnes clinical isolates was tested by the agar dilution method. The assay was carried out according to the CLSI guidelines document (Clinical and Laboratory Standards Institute, 2012 & 2016). The test strains were spread on supplemented Brucella agar (SBA) plates and grown for 42 to 48 hours at 36° C. under anaerobic condition. The test compound dilutions were prepared with Brucella broth and SBA plates containing dilution of test compound were prepared. As an anaerobic growth control and to check the aerobic contamination, plates not containing the test compound were also prepared. Colonies grown on plates were suspended with Brucella broth to adjust the turbidity to 0.5 McFarland using a densitometer. Suspension (1-2 μL) of the test strains was inoculated onto each agar surface by using a bacterial suspension inoculation apparatus (multipoint inoculator). After anaerobic incubation for 42 to 48 hours at 36° C., absence and presence of growth of each strain on growth control plates and test compounds plate were examined with unaided eye. The MIC was determined at which a marked reduction occurs in the appearance of growth on the test plate as compared to that of growth on the anaerobic control plates.

[3] = system: P. acnes IHMA 103740; assay: Susceptibility of P. acnes, agar dilution MIC; type: cell-based; conditions: Cutibacterium acnes, IHMA103740, anaerobic
Experimental: as §1

[4] = system: P. acnes ATCC 6523; assay: Susceptibility of P. acnes, agar dilution MIC; type: cell-based; conditions: Cutibacterium acnes, ATCC6523, anaerobic
Experimental: as §1

[5] = system: P. acnes IHMA 775486; assay: Susceptibility of P. acnes, agar dilution MIC; type: cell-based; conditions: Cutibacterium acnes, IHMA775486, anaerobic
Experimental: as §1

[6] = system: Clostridium difficile 2009155, a NAP1/027 strain; assay: Hamster CDI model; type: in vivo; conditions: 0.3 mg/kg/day by oral route, 5 days
Experimental: The in vivo efficacy of test compounds were evaluated in a hamster CDI model caused by Clostridium difficile 2009155, a NAP1/027 strain. Syrine hamsters (6-8-weeks old) were primed with a single subcutaneous injection of clindamycin (30 mg/kg) 1-5 days prior to infection. Hamsters were infected by oral gavage with 1 ml of spore suspension ([…]) prepared in PBS. The drug was administered to the hamsters 6 hours post infection by oral or subcutaneous route at an interval of 24 hours for 5 days. The death and survival of the non-treated group and the drug-administered group were recorded once daily for 35 days.

[7] = system: N. gonorrhoeae clinical isolates; assay: Susceptibility of N. gonorrhoeae, agar dilution MIC; type: cell-based
Experimental: The antibacterial activity of the compounds of the present invention against N. gonorrhoeae clinical isolates was tested by the agar dilution method [Clinical and Laboratory Standards Institute, 2016]. The test strains were spread on chocolate agar plates and grown for 20-24 h at 36° C. in 5% carbon dioxide. The test compound dilutions were prepared with broth and agar MIC plates were prepared using GC agar base supplemented with haemoglobin and 1% IsoVitaleX plates. As growth control plates not containing the test compound were also prepared. Colonies grown on plates were suspended with broth to adjust the turbidity to 0.5 McFarland using a densitometer. Suspension (1-2 μL) of the test strains was inoculated onto each agar surface by using a bacterial suspension inoculation apparatus (multipoint inoculator). After aerobic incubation for 20-24 h at 36° C. in 5% carbon dioxide, absence and presence of growth of each strain on growth control plates and test compounds plate were examined with unaided eye. The MIC was determined at which a marked reduction occurs in the appearance of growth on the test plate as compared to that of growth on the aerobic control plates.

[8] = system: S. aureus ATCC 29213; assay: Susceptibility of bacteria, broth microdilution MIC; type: cell-based; conditions: Staphylococcus aureus, ATCC29213
Experimental: The antibacterial activity of the compounds of the present invention was tested by the broth microdilution method. The assay was carried out according to the CLSI guidelines for managing the procedures of susceptibility tests: “M7-A7 Methods for Dilution Antimicrobial Susceptibility Tests for Bacteria That Grow Aerobically; Approved Standard-Seventh Edition (2006)”. Test strains were grown on appropriate agar plates overnight. A broth containing the test compound diluted serially 2-fold and diluents were dispensed at 100 μL to each well of a 96-well microplate. As a growth control, a well with a broth not containing the test compound was also prepared. Colonies grown on the plates were suspended in saline, adjusted to 0.5 McFarland (OD625=0.08 to 0.10) using a colorimeter, and then diluted 10-fold with saline. The bacterial suspension was inoculated at 4 μL into each well of the microplate using a bacterial suspension inoculation apparatus. The inoculated microplate was incubated at 35° C. overnight (about 20 hours). The growth condition was observed by the naked eye, and the minimum concentration to inhibit bacterial proliferation was defined as a minimum inhibitory concentration (MIC). The MICs of compounds disclosed herein for E. faecium, Streptococcus pneumoniae and Haemophilus influenzae are shown in Table 2, while for S. aureus in Table 3.

[9] = system: Clostridium difficile ATCC 43255; assay: Susceptibility of Clostridium difficile, agar dilution MIC; type: cell-based; conditions: Clostridioides difficile, ATCC43255, anaerobic
Experimental: The antibacterial activity of the compounds of the present invention against Clostridium difficile clinical isolates was tested by the agar dilution method. The assay was carried out according to the CLSI guidelines for managing the procedures of susceptibility tests “M11-A8, Methods for Antimicrobial Susceptibility Testing of Anaerobic Bacteria; Approved Standard-Eighth Edition. CLSI document (2012)”.
The test strains were spread on supplemented Brucella agar (SBA) plates and grown at 36° C. under anaerobic condition for 42 to 48 hours. The test compound dilutions were prepared with Brucella broth and SBA plates containing dilution of test compound were prepared. As an anaerobic growth control, plates not containing the test compound were also prepared. Colonies grown on plates were suspended with Brucella broth to adjust the turbidity to 0.5 McFarland using a densitometer. Suspension (1-2 μL) of the test strains was inoculated onto each agar surface by using a bacterial suspension inoculation apparatus. After anaerobic incubation at 36° C. for 42 to 48 hours, absence and presence of growth of each strain were examined with unaided eye. The MIC was determined at which a marked reduction occurs in the appearance of growth on the test plate as compared to that of growth on the anaerobic control plates.

[10] = target: Clostridium difficile DNA gyrase (Clostridioides difficile, UniProt Q18C89); assay: DNA supercoiling inhibition assay; type: biochemical; conditions: supercoiling of relaxed pBR322 DNA, 60 minutes at 37° C.
Clostridium difficile DNA gyrase, sequence (Q18C90 entry or part of it): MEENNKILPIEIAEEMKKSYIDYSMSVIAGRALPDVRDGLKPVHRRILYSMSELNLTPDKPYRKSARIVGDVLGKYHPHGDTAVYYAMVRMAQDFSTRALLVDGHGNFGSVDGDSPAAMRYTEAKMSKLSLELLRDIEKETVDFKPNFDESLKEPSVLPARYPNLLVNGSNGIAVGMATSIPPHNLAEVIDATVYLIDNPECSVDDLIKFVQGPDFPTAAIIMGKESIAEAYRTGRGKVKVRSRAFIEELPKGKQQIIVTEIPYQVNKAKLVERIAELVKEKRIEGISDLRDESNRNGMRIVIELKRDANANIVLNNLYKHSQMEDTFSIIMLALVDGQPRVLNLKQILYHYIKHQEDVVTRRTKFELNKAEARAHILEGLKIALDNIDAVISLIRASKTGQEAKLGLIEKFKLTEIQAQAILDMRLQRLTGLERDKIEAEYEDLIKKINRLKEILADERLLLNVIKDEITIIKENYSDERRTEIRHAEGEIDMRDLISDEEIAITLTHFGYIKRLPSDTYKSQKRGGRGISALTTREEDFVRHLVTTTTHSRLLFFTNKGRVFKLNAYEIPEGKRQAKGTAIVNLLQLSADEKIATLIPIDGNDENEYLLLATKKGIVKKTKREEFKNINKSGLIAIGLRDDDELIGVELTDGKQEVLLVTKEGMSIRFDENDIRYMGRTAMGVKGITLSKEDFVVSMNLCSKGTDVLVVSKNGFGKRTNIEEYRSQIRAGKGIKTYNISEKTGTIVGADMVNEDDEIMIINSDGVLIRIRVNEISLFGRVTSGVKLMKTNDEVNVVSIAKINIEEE
Clostridium difficile DNA gyrase, sequence (Q18C89 entry or part of it): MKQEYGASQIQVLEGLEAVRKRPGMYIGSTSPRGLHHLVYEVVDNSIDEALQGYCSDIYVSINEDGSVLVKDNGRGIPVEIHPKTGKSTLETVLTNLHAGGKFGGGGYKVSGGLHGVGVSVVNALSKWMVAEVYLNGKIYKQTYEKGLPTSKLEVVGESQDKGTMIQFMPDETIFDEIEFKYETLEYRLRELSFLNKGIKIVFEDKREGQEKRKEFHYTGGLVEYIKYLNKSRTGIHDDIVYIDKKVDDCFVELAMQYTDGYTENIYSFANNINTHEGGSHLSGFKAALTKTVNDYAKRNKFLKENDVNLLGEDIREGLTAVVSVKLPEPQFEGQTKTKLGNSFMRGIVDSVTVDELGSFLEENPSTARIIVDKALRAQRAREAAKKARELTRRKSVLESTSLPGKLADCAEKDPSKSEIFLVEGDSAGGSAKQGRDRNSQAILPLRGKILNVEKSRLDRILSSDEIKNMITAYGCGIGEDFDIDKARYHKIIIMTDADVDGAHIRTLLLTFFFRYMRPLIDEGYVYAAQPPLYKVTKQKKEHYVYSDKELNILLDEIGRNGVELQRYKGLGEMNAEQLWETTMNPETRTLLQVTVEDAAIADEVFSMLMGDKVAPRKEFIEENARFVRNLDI
Experimental: DNA supercoiling assays (30 μL reaction) were performed in a buffer containing 15 mM Tris-HCl pH 7.5, 13% glycerol, 6 mM MgCl2, 0.1 mg/mL BSA, 70 mM KCl, 1 mM dithioerythritol, 400 ng of DNA substrate (relaxed pBR322 DNA) and different concentrations of test compounds and/or standards. The dilutions of test compounds and standards were prepared in 20% dimethylsulfoxide (DMSO) and added 3 μL/reaction. The reaction was started by adding 2 μL amounts of Clostridium difficile DNA gyrase into the reaction mixtures and reactions were allowed to proceed for 60 minutes at 37° C. A reaction was carried out by adding 3 μL of 20% DMSO instead of test compound as full reaction control, and another reaction was carried out by adding sterile water instead of the enzyme as no reaction control.
Reactions were stopped by the addition of 5 μL of 6×loading dye and were analyzed by electrophoresis through 1.0% agarose gels with 1×TAE running buffer. Gels were run at 60 V for 3 hours, stained with EtBr, and visualized by Gel Doc system (BioRad). Intensity of the supercoiled DNA bands was quantified, and the IC50 of Clostridium difficile DNA gyrase was calculated using Graph Pad Prism.

[11] = Animal infection models (background statement); conditions: in vivo
[12] = Solubility for oral absorption (background statement); type: physicochemical; conditions: compared to compounds disclosed in this patent application

SMILES | solubility at 30 min ([1]; Japanese Pharmacopeia First Fluid (JP1), pH 1.2, simulated gastric fluid, read-out: Solubility JP1) | solubility at 30 min ([1]; Japanese Pharmacopeia Second Fluid (JP2), pH 6.8, aqueous buffer, read-out: Solubility JP2) | MIC [2] | MIC [3] | MIC [4] | MIC [5] | survival on day 35 [6] | MIC [7] | MIC [8] | MIC [9] | IC50 [10] | efficacy in animal infection models [11] | solubility [12]
CCc1[nH]c(C(=O)N[C@@H]2CCN(c3nnc(C(C)(O)CO)s3)C[C@@H]2OC)nc1Cl (stereo in doubt) [Compound No. 10, 4-Chloro-N-[(3S,4R)-1-{5-[(2R)-1,2-dihydroxypropan-2-yl]-1,3,4-thiadiazol-2-yl}-3-methoxypiperidin-4-yl]-5-ethyl-1H-imidazole-2-carboxamide] | 887 µg/mL (≈ 1990 µM) | 429 µg/mL (≈ 964 µM) | 0.125 µg/mL (≈ 0.281 µM) | 0.125 µg/mL (≈ 0.281 µM) | 0.125 µg/mL (≈ 0.281 µM) | 0.125 µg/mL (≈ 0.281 µM) | 100% | 0.125 µg/mL (≈ 0.281 µM) | 1 µg/mL (≈ 2.25 µM) | 0.06 µg/mL (≈ 0.135 µM) | 60.7 nM |  | 
CCO[C@H]1CN(c2nncs2)CC[C@H]1NC(=O)c1nc(Cl)c(CC)[nH]1 [Compound No. 150] |  |  |  |  |  |  |  |  |  |  |  | not being efficacious | low
